Assay results: the Kinase Knowledgebase extract (Sharma et al. 2016)

Target: MAPK14 (human) (UniProt Q16539)
Assay: Inhibition of MAPK14 Kinase Activity

Chain of MAPK14 (human) (Q16539 whole entry, looked up): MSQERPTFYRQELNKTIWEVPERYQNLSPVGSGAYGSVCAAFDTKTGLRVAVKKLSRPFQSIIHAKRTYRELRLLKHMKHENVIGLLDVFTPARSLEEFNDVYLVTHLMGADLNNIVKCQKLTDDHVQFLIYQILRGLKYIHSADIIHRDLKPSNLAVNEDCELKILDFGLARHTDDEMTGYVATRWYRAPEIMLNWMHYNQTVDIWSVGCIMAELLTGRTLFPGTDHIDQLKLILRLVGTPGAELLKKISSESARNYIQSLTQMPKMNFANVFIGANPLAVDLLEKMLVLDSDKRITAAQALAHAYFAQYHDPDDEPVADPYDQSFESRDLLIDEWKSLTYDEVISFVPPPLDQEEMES

IC50: ≤ 1 µM
SMILES: CCOC(=O)c1sc2c(ccc(=O)n2-c2ccc(C(C)(C)O)cc2)c1Nc1ccccc1
